Data from patent US20040209914A1, “Aromatic sulfone hydroxamic acids and their use as protease inhibitors” (priority 2000, published 2004).
Where two headings read alike, the source gives them in different places.

Tests used:
Assay in all cases: biochemical
Details in all cases: fluorogenic MCA-peptide substrate, pH 7.5, room temperature
Recombinant human MMP-2 = target: T1, Recombinant human MMP-2 (Homo sapiens, UniProt P08253)
T1 construct: made in house
T1 sequence (P08253 110-660): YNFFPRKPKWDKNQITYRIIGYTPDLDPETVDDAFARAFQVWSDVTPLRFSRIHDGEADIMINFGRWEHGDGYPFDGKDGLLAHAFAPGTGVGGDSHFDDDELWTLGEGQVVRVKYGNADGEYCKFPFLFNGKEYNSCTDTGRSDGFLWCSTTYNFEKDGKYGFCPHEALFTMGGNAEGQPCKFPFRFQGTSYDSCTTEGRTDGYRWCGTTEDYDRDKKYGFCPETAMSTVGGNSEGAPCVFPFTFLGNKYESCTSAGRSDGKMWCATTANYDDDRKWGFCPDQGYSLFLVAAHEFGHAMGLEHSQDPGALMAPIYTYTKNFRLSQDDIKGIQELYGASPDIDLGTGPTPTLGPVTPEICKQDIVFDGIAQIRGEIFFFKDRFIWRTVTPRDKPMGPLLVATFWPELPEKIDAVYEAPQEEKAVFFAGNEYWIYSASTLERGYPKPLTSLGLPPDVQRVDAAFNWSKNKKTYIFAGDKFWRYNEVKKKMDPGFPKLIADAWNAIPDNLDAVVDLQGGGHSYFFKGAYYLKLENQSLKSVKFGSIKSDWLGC
Protocol: (§1) Recombinant human MMP-1, MMP-2, MMP-9, MMP-13, and were used in this assay. These enzymes were prepared in the Assignee's es following usual laboratory procedures. Specifics for preparing and e enzymes can be found in the scientific literature describing these See, e.g., Enzyme Nomenclature (Academic Press, San Diego, Calif., d the citations therein).
The MMP-2 was obtained from MMP-2 expressing transfected cells provided by Dr. Gregory Goldberg of Washington University.
(§2) The enzyme substrate was a methoxycoumarin-containing polypeptide having the following sequence:
(§3) MCA-ProLeuGlyLeuDpaAlaArgNH2
(§4) Here, “MCA” is methoxycoumarin and “Dpa” is 3-(2,4-dinitrophenyl)-L-2,3-diaminopropionyl alanine.
(§5) These solutions were then compared to a control (which contained equal amount of DMSO/buffer solution, but no hydroxamate compound) using Microfluor™ White Plates (Dynatech, Chantilly, Va.). Specifically, The MMPs were activated with APMA or trypsin. […] The control likewise was incubated at room temperature in separate plates with the MMP and 4 uM of the MMP substrate. […] Inhibition was measured as a reduction in fluorescent intensity as a function of inhibitor concentration using a Perkin Elmer (Norwalk, Conn.) L550 plate reader. The IC50's were then calculated from these measurements.

Recombinant human MMP-13 = target: T2, Recombinant human MMP-13 (Homo sapiens, UniProt P45452)
T2 construct: made in house; host or cells: baculovirus / insect cells
Protocol: as §1
The expressed proenzyme was first purified over a heparin agarose column, and then over a chelating zinc chloride column. The proenzyme was then activated by APMA for use in the assay.
as §2, §3, §4, §5

Recombinant human MMP-1 = target: T3, Recombinant human MMP-1 (Homo sapiens, UniProt P03956)
T3 construct: made in house; host or cells: transfected HT-1080 cells
T3 sequence (P03956 100-469): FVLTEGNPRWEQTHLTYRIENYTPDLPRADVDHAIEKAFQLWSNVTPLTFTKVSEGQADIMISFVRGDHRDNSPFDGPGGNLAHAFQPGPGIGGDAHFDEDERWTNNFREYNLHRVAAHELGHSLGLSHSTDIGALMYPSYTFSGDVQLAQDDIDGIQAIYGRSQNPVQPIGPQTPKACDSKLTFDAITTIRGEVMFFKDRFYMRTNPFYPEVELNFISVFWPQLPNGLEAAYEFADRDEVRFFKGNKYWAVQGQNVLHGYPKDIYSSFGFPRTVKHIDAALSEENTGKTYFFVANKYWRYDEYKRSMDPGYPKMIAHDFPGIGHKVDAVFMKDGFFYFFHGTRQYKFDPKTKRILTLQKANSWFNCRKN
Protocol: as §1
The MMP-1 was obtained from MMP-1 expressing transfected HT-1080 cells provided by Dr. Harold Welgus of Washington University in St. Louis, Mo. The MMP-1 was activated using 4-aminophenylmercuric acetate (APMA), and then purified over a hydroxamic acid column.
as §2, §3, §4, §5

| Structure (SMILES) | IC50 (Recombinant human MMP-2; read-out: MMP-2 IC50) | IC50 (Recombinant human MMP-13; read-out: MMP-13 IC50) | IC50 (Recombinant human MMP-1) | IC50 (Recombinant human MMP-2; MMP-2 IC50(nM)) | IC50 (Recombinant human MMP-13; MMP-13 IC50(nM)) |
| --- | --- | --- | --- | --- | --- |
| O=C(C1CCN(c2ccc(S(=O)(=O)C3(C(=O)NO)CCOCC3)cc2)CC1)N1CCN(c2ccccc2Cl)CC1 [Example 4] | 2900 nM | 15.6 nM | > 10000 nM |  |  |
| Cc1ccc(Cl)cc1N1CCN(C(=O)C2CCN(c3ccc(S(=O)(=O)C4(C(=O)NO)CCOCC4)cc3)CC2)CC1 [Example 6] | > 10000 nM | 18.1 nM | > 10000 nM |  |  |
| COc1ccccc1N1CCN(C(=O)C2CCN(c3ccc(S(=O)(=O)C4(C(=O)NO)CCOCC4)cc3)CC2)CC1 [Example 7] | 4500 nM | 18 nM | > 10000 nM |  |  |
| CC(=O)N1CCN(C(=O)C2CCN(c3ccc(S(=O)(=O)C4(C(=O)NO)CCOCC4)cc3)CC2)CC1 [Example 8] |  | 50 nM | > 10000 nM | 2500 nM |  |
| Cc1ccc(N2CCN(C(=O)C3CCN(c4ccc(S(=O)(=O)C5(C(=O)NO)CCOCC5)cc4)CC3)CC2)c(C)c1 [Example 9] | 5600 nM | 12.2 nM | > 10000 nM |  |  |
| O=C(C1CCN(c2ccc(S(=O)(=O)C3(C(=O)NO)CCOCC3)cc2)CC1)N1CCN(CCO)CC1 [Example 10] | 6000 nM | 40 nM | > 10000 nM |  |  |
| CCOC(=O)CN1CCN(C(=O)C2CCN(c3ccc(S(=O)(=O)C4(C(=O)NO)CCOCC4)cc3)CC2)CC1 [Example 11] | 2700 nM | 37 nM | > 10000 nM |  |  |
| O=C(C1CCN(c2ccc(S(=O)(=O)C3(C(=O)NO)CCOCC3)cc2)CC1)N1CCN(c2ccccc2F)CC1 [Example 12] |  |  | > 10000 nM | 1400 nM | 6.7 nM |
| O=C(c1ccco1)N1CCN(C(=O)C2CCN(c3ccc(S(=O)(=O)C4(C(=O)NO)CCOCC4)cc3)CC2)CC1 [Example 13] | 3500 nM | 31.6 nM | > 10000 nM |  |  |
| O=C(C1CCN(c2ccc(S(=O)(=O)C3(C(=O)NO)CCOCC3)cc2)CC1)N1CCN(C2CCCC2)CC1 [Example 14] | > 10000 nM | 45 nM | > 10000 nM |  |  |
| CC(C)N1CCN(C(=O)C2CCN(c3ccc(S(=O)(=O)C4(C(=O)NO)CCOCC4)cc3)CC2)CC1 [Example 15] | 5500 nM | 28 nM | > 10000 nM |  |  |
| O=C(CN1CCN(C(=O)C2CCN(c3ccc(S(=O)(=O)C4(C(=O)NO)CCOCC4)cc3)CC2)CC1)N1CCCC1 [Example 16] | 4800 nM | 42.5 nM | > 10000 nM |  |  |
| COCCN1CCN(C(=O)C2CCN(c3ccc(S(=O)(=O)C4(C(=O)NO)CCOCC4)cc3)CC2)CC1 [Example 18] | > 10000 nM | > 10000 nM | > 10000 nM |  |  |
| O=C(C1CCN(c2ccc(S(=O)(=O)C3(C(=O)NO)CCOCC3)cc2)CC1)N1CCN(c2ncccn2)CC1 [Example 23] |  |  | > 10000 nM | 1600 nM | 6.4 nM |
| CC(=O)c1ccc(N2CCN(C(=O)C3CCN(c4ccc(S(=O)(=O)C5(C(=O)NO)CCOCC5)cc4)CC3)CC2)cc1 [Example 24] |  | 6.7 nM | > 10000 nM | 700 nM |  |
| O=C(C1CCN(c2ccc(S(=O)(=O)C3(C(=O)NO)CCOCC3)cc2)CC1)N1CCN(c2ccc([N+](=O)[O-])cc2)CC1 [Example 25] | 445 nM | 4 nM | > 10000 nM |  |  |
| O=C(C1CCN(c2ccc(S(=O)(=O)C3(C(=O)NO)CCOCC3)cc2)CC1)N1CCN(c2ccc(C(F)(F)F)cc2)CC1 [Example 33] |  |  | 67.4 nM |  |  |
| C=CCN1CCN(C(=O)C2CCN(c3ccc(S(=O)(=O)C4(C(=O)NO)CCOCC4)cc3)CC2)CC1 [Example 34] | 3700 nM | 19.3 nM | > 10000 nM |  |  |
